What was measured:
SN12C = experiment: cells; type: cell-based; conditions: Homo sapiens, read-out: growth inhibition % (GI%)
786-0 = experiment: cells; type: cell-based; conditions: Homo sapiens, 786-0, read-out: growth inhibition % (GI%)
OVCAR-4 = experiment: cells; type: cell-based; conditions: Homo sapiens, OVCAR-4, read-out: growth inhibition % (GI%)
HT29 = experiment: cells; type: cell-based; conditions: Homo sapiens, HT-29, read-out: growth inhibition % (GI%)
HCT-116 = experiment: cells; type: cell-based; conditions: Homo sapiens, HCT-116, read-out: growth inhibition % (GI%)
K-562 = experiment: cells; type: cell-based; conditions: Homo sapiens, K562, read-out: growth inhibition % (GI%)
HL-60(TB) = experiment: cells; type: cell-based; conditions: Homo sapiens, HL-60, read-out: growth inhibition % (GI%)
UACC-62 = experiment: cells; type: cell-based; conditions: Homo sapiens, UACC-62, read-out: growth inhibition % (GI%)
MDA-MB-435 = experiment: cells; type: cell-based; conditions: Homo sapiens, MDA-MB-435, read-out: growth inhibition % (GI%)
DU-145 = experiment: cells; type: cell-based; conditions: Homo sapiens, DU-145, read-out: growth inhibition % (GI%)
RPMI-8226 = experiment: cells; type: cell-based; conditions: Homo sapiens, RPMI-8226, read-out: growth inhibition % (GI%)
TK-10 = experiment: cells; type: cell-based; conditions: Homo sapiens, TK-10, read-out: growth inhibition % (GI%)
CCRF-CEM = experiment: cells; type: cell-based; conditions: Homo sapiens, read-out: growth inhibition % (GI%)
A549/ATCC = experiment: cells; type: cell-based; conditions: Homo sapiens, A549, read-out: growth inhibition % (GI%)
[1] = tested on: panel of 60 tumour cell lines; experiment: NCI 60 cell line antiproliferative screening (SRB), whole panel or subpanels (means, ranges, words); type: cell-based, human; conditions: 10 μM; for GI% range over a subset of cell lines: subset of cell lines whose number is stated in the sentence; for inhibition at 10 µM: Homo sapiens, 60 cell, mean over the cell line panel, read-out: Mean growth inhibition % (mean GI%)
MCF7 = experiment: cells; type: cell-based; conditions: Homo sapiens, MCF7, read-out: growth inhibition % (GI%)
PC-3 = experiment: cells; type: cell-based; conditions: Homo sapiens, PC-3, read-out: growth inhibition % (GI%)
HCT-15 = experiment: cells; type: cell-based; conditions: Homo sapiens, HCT-15, read-out: growth inhibition % (GI%)
SR = experiment: cells; type: cell-based; conditions: Homo sapiens, read-out: growth inhibition % (GI%)
OVCAR-3 = experiment: NCI 60 cell line antiproliferative screening (SRB), Ovarian cancer; conditions: Homo sapiens, OVCAR-3, read-out: growth inhibition % (GI%)
SK-OV-3 = experiment: cells; type: cell-based; conditions: Homo sapiens, SK-OV-3, read-out: growth inhibition % (GI%)
EKVX = experiment: cells; type: cell-based; conditions: Homo sapiens, read-out: growth inhibition % (GI%)
A498 = experiment: cells; type: cell-based; conditions: Homo sapiens, A498, read-out: growth inhibition % (GI%)
KM12 = experiment: cells; type: cell-based; conditions: Homo sapiens, KM12, read-out: growth inhibition % (GI%)
NCI-H226 = experiment: cells; type: cell-based; conditions: Homo sapiens, NCI-H226, read-out: growth inhibition % (GI%)
SK-MEL-5 = experiment: cells; type: cell-based; conditions: Homo sapiens, SK-MEL-5, read-out: growth inhibition % (GI%)
NCI-H522 = experiment: cells; type: cell-based; conditions: Homo sapiens, NCI-H522, read-out: growth inhibition % (GI%)
SNB-19 = experiment: cells; type: cell-based; conditions: Homo sapiens, SNB-19, read-out: growth inhibition % (GI%)
SF-295 = experiment: cells; type: cell-based; conditions: Homo sapiens, SF-295, read-out: growth inhibition % (GI%)
ACHN = experiment: cells; type: cell-based; conditions: Homo sapiens, read-out: growth inhibition % (GI%)
NCI-H322M = experiment: cells; type: cell-based; conditions: Homo sapiens, read-out: growth inhibition % (GI%)
MDA-MB-468 = experiment: NCI 60 cell line antiproliferative screening (SRB), Breast cancer; conditions: Homo sapiens, MDA-MB-468, read-out: growth inhibition % (GI%)
NCI/ADR-RES = experiment: cells; type: cell-based; conditions: Homo sapiens, read-out: growth inhibition % (GI%)
SNB-75 = experiment: cells; type: cell-based; conditions: Homo sapiens, SNB-75, read-out: growth inhibition % (GI%)
MOLT-4 = experiment: cells; type: cell-based; conditions: Homo sapiens, MOLT-4, read-out: growth inhibition % (GI%)
U251 = experiment: cells; type: cell-based; conditions: Homo sapiens, U-251, read-out: growth inhibition % (GI%)
SW-620 = experiment: cells; type: cell-based; conditions: Homo sapiens, SW-620, read-out: growth inhibition % (GI%)
HCC-2998 = experiment: cells; type: cell-based; conditions: Homo sapiens, HCC 2998, read-out: growth inhibition % (GI%)
COLO-205 = experiment: cells; type: cell-based; conditions: Homo sapiens, COLO 205, read-out: growth inhibition % (GI%)
SF-539 = experiment: cells; type: cell-based; conditions: Homo sapiens, SF-539, read-out: growth inhibition % (GI%)
SK-MEL-28 = experiment: cells; type: cell-based; conditions: Homo sapiens, SK-MEL-28, read-out: growth inhibition % (GI%)
HOP-62 = experiment: cells; type: cell-based; conditions: Homo sapiens, HOP-62, read-out: growth inhibition % (GI%)
NCI-H460 = experiment: cells; type: cell-based; conditions: Homo sapiens, NCI-H460, read-out: growth inhibition % (GI%)
BT-549 = experiment: cells; type: cell-based; conditions: Homo sapiens, BT-549, read-out: growth inhibition % (GI%)
LOX IMIV = experiment: cells; type: cell-based; conditions: Homo sapiens, 60 cell, read-out: growth inhibition % (GI%)
IGROV1 = experiment: cells; type: cell-based; conditions: Homo sapiens, IGROV-1, read-out: growth inhibition % (GI%)

## O=C(CSc1nc2ccccc2c(=O)n1-c1ccccc1)NN=Cc1ccc(Oc2ccc(Cl)cc2)cc1 [6a, N'-(4–(4-chlorophenoxy)benzylidene)-2-((4-oxo-3-phenyl-3,4-dihydroquinazolin-2-yl)thio)acetohydrazide]
SN12C
  inhibition at 10 µM: 73.1%
786-0
  inhibition at 10 µM: 46.8%
OVCAR-4
  inhibition at 10 µM: 26.2%
HT29
  inhibition at 10 µM: 40.9%
HCT-116
  inhibition at 10 µM: 94.4%
K-562
  inhibition at 10 µM: 38.8%
HL-60(TB)
  inhibition at 10 µM: < 15%
UACC-62
  inhibition at 10 µM: 33.4%
MDA-MB-435
  inhibition at 10 µM: 15.4%
DU-145
  inhibition at 10 µM: 61.6%
RPMI-8226
  inhibition at 10 µM: 26.8%
TK-10
  inhibition at 10 µM: < 15%
CCRF-CEM
  inhibition at 10 µM: 49.6%
A549/ATCC
  inhibition at 10 µM: 58.3%
[1]
  GI% range over a subset of cell lines: 67.86% to 30.09
  inhibition at 10 µM: 37.3%
MCF7
  inhibition at 10 µM: 35.5%
PC-3
  inhibition at 10 µM: 41.3%
HCT-15
  inhibition at 10 µM: 39.2%
SR
  inhibition at 10 µM: 29.7%
OVCAR-3
  inhibition at 10 µM: < 15%
SK-OV-3
  inhibition at 10 µM: 16.8%
EKVX
  inhibition at 10 µM: 41%
A498
  inhibition at 10 µM: 34.3%
KM12
  inhibition at 10 µM: 16.3%
NCI-H226
  inhibition at 10 µM: 27.9%
SK-MEL-5
  inhibition at 10 µM: 28.8%
NCI-H522
  inhibition at 10 µM: 50.4%
SNB-19
  inhibition at 10 µM: 66.8%
SF-295
  inhibition at 10 µM: 16.2%
ACHN
  inhibition at 10 µM: 25.5%
NCI-H322M
  inhibition at 10 µM: 15.5%
MDA-MB-468
  inhibition at 10 µM: 28.4%
NCI/ADR-RES
  inhibition at 10 µM: 47.3%
SNB-75
  inhibition at 10 µM: 39.9%
MOLT-4
  inhibition at 10 µM: 41.3%
U251
  inhibition at 10 µM: 84.8%
SW-620
  inhibition at 10 µM: 56.9%
HCC-2998
  inhibition at 10 µM: < 15%
COLO-205
  inhibition at 10 µM: 50.8%
SF-539
  inhibition at 10 µM: 31.5%
SK-MEL-28
  inhibition at 10 µM: 37.6%
HOP-62
  inhibition at 10 µM: 40.9%
NCI-H460
  inhibition at 10 µM: 67.9%
BT-549
  inhibition at 10 µM: 30.1%
LOX IMIV
  inhibition at 10 µM: 86%
IGROV1
  inhibition at 10 µM: 50.9%

## COc1ccc(Oc2ccc(C=NNC(=O)CSc3nc4ccccc4c(=O)n3-c3ccc(Cl)cc3)cc2)cc1 [6f, 2-((3–(4-chlorophenyl)-4-oxo-3,4-dihydroquinazolin-2-yl)thio)-N'-(4–(4-methoxyphenoxy)benzylidene)acetohydrazide]
SN12C
  inhibition at 10 µM: 47.3%
786-0
  inhibition at 10 µM: 74.8%
OVCAR-4
  inhibition at 10 µM: 27.4%
HT29
  inhibition at 10 µM: 83.9%
HCT-116
  inhibition at 10 µM: 86.7%
K-562
  inhibition at 10 µM: 41.6%
HL-60(TB)
  inhibition at 10 µM: < 15%
UACC-62
  inhibition at 10 µM: 38.1%
MDA-MB-435
  inhibition at 10 µM: < 15%
DU-145
  inhibition at 10 µM: 50.8%
RPMI-8226
  inhibition at 10 µM: 14.9%
TK-10
  inhibition at 10 µM: < 15%
CCRF-CEM
  inhibition at 10 µM: 36.5%
A549/ATCC
  inhibition at 10 µM: 53%
[1]
  GI% range over a subset of cell lines: 67.83 to 30.59%
  inhibition at 10 µM: 42.5%
MCF7
  inhibition at 10 µM: 50.7%
PC-3
  inhibition at 10 µM: 36.3%
HCT-15
  inhibition at 10 µM: 44%
SR
  inhibition at 10 µM: 27.2%
OVCAR-3
  inhibition at 10 µM: > 100%
SK-OV-3
  inhibition at 10 µM: 33.7%
EKVX
  inhibition at 10 µM: 30.6%
A498
  inhibition at 10 µM: 27.1%
KM12
  inhibition at 10 µM: 22.8%
NCI-H226
  inhibition at 10 µM: 20.3%
SK-MEL-5
  inhibition at 10 µM: 22%
NCI-H522
  inhibition at 10 µM: 48.7%
SNB-19
  inhibition at 10 µM: 38.5%
SF-295
  inhibition at 10 µM: 32.3%
ACHN
  inhibition at 10 µM: 92.2%
NCI-H322M
  inhibition at 10 µM: 15.3%
MDA-MB-468
  inhibition at 10 µM: 33.2%
NCI/ADR-RES
  inhibition at 10 µM: 48.9%
SNB-75
  inhibition at 10 µM: 58.4%
MOLT-4
  inhibition at 10 µM: 38.3%
U251
  inhibition at 10 µM: 63.5%
SW-620
  inhibition at 10 µM: 55.6%
HCC-2998
  inhibition at 10 µM: 16.6%
COLO-205
  inhibition at 10 µM: 27.2%
SF-539
  inhibition at 10 µM: 67.8%
SK-MEL-28
  inhibition at 10 µM: < 15%
HOP-62
  inhibition at 10 µM: 26.7%
NCI-H460
  inhibition at 10 µM: 88.8%
BT-549
  inhibition at 10 µM: < 15%
LOX IMIV
  inhibition at 10 µM: 85.3%
IGROV1
  inhibition at 10 µM: 51.4%
